In patent US8815935B2, “Inhibitors of protein prenyltransferases” (The Regents of the University of California, priority 2008, dated 2014):
“Also recorded” adds a separate entry of the source. Read-outs that look alike come from different tables or passages of the source.

How the values were obtained:
Format in all cases: biochemical
GGTase-I = target: T1, GGTase-I (Rattus norvegicus, UniProt P53610+Q04631); assay: In vitro GGTase-I enzyme assay (IC50, kinetics); conditions: for IC50: read-out: In vitro (enzyme assay) IC50, GGTase I
T1 construct: purchased JENA BIOSCIENCE
Method in brief: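 Rat GGTase-I (50 nM) with 0.5 μM [3H]-GGPP and 2 μM MBP-RhoA in Tris-HCl pH 7.5, MgCl2, ZnCl2, DTT, 2.5% DMSO, 10 min at 30 °C; radiolabel incorporation by TCA filter binding and scintillation. Kinetics: 5 min reactions varying GGPP or RhoA at fixed other components.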

FTase = target: T2, FTase (Rattus norvegicus, UniProt Q02293+Q04631); assay: In vitro FTase assay (K-Ras4B substrate, [3H]FPP)
T2 construct: purchased JENA BIOSCIENCE
Method in brief: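 FTase (50 nM) with 2 μM MBP-K-Ras4B and 0.4 μM [3H]-FPP in 50 mM Tris-HCl pH 7.5, 10 mM MgCl2, […], 5 mM DTT, 2.5% DMSO; 10 min at 30 °C. [3H]-farnesyl incorporation measured by TCA filter precipitation and scintillation counting.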

RabGGTase = target: T3, RabGGTase (Rattus norvegicus, UniProt Q08602+Q08603); assay: In vitro RabGGTase (GGTase-II) assay with REP-1
T3 construct: purchased JENA BIOSCIENCE
T3 sequence (Q08602 1-567): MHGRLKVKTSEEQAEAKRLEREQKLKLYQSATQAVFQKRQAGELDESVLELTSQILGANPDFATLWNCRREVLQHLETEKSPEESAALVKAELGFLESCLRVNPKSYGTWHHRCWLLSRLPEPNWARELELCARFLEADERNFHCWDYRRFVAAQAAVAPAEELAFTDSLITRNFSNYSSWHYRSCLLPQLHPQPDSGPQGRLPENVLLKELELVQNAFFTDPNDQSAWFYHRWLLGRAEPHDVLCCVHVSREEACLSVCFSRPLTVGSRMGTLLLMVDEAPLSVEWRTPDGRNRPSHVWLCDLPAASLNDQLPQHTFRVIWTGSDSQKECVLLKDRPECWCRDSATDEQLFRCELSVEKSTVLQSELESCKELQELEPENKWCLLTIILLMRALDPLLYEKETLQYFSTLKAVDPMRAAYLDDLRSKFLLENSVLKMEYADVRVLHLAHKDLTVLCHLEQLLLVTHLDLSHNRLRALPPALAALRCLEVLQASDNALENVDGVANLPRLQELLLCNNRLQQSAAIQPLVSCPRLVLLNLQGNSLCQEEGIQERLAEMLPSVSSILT
T3 sequence (Q08603 1-331): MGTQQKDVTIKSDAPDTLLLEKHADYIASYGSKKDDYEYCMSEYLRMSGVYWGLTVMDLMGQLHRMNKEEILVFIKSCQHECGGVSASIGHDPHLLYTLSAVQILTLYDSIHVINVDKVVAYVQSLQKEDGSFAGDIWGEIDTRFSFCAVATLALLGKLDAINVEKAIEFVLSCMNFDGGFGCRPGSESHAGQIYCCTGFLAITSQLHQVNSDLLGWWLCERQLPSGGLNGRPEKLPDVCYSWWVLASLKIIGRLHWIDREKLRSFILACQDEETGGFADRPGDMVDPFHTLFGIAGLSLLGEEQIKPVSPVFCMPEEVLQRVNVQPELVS
Procedure: The GGTase-I assay was carried out using RhoA as a substrate protein, GGTase-I (JENA Bioscience) and [3H]geranylgeranyl pyrophosphate. Incubation was for 30 min at 37° C. GGTase-II (or RabGGTase) assay was carried out using YPTI as a substrate protein, GGTase-II (Calbiochem, San Diego, Calif.) plus REP1 (Calbiochem) and [3H]geranylgeranyl pyrophosphate. Incubation was for 30 min at 37° C. FIGS. 20D-20F show the three dimensional structure of GGTase I (D), FTsse (E) and GGTase II (F) which can be obtained from X-ray diffraction studies of protein crystals.
For RabGGTase assays, the reaction contained the following components in 20 μl; 0.625 μl of [^3H]-GGPP (0.7 μM), 25 nM RabGGTase, 0.6 μM REP-1, 0.6 μM purified Rab7 or Ypt1 protein, 40 mM HEPES (pH 7.5), 150 mM NaCl, 5 mM DTT, 3 mM MgCl2 and 0.3% CHAPS. Reactions were carried out for 20 min at 37° C. and the products were analyzed as described above for the GGTase-I reaction. Graphing and Michaelis-Menten analysis were performed using Prism version5 (GraphPad, San Diego Calif.).

[1] = concentration increased to 100,000 nM

| Compound | specificity among GGTase-I, FTase and GGTase-II (GGTase-I; FIGS. 20A-20C, varying concentrations) | Ki (GGTase-I; Michaelis-Menten analysis) [nM] | IC50 (GGTase-I; Tables 5, 14) [nM] | mode of GGTase-I inhibition with respect to GGPP (GGTase-I; varying GGPP, fixed RhoA) | mode of GGTase-I inhibition with respect to the protein substrate (RhoA) (GGTase-I; varying RhoA, fixed GGPP) | inhibition of FTase activity (FIG. 16) (FTase; P3-D9, P3-E5: concentration increased to 100 (unit not given)) | inhibition of FTase activity (FTase; concentration increased to 50,000 nM) | inhibition of RabGGTase (RabGGTase; even at 50,000 nM) | IC50 (GGTase-I; Tables 3, 5, 7) [nM] | inhibition of FTase activity (FTase; [1]) | inhibition of RabGGTase activity (RabGGTase; [1]) |
| --- | --- | --- | --- | --- | --- | --- | --- | --- | --- | --- | --- |
| Cc1ccccc1S(=O)(=O)N1[C@@H](c2cccc(Cl)c2)C(C(=O)O)=CC[C@H]1c1ccc(Cl)cc1 [P3-E5] | specifically inhibit GGTase I | 187 ± 13 | 313 | do not compete with GGPP; also recorded: uncompetitive inhibitors | compete with a substrate protein; also recorded: competitive inhibitors | no inhibition of FTase activity | no significant inhibition | little inhibition | – | – | – |
| Cc1ccccc1S(=O)(=O)N1C(c2ccc(Cl)cc2)C(C(=O)NC(Cc2ccccc2)C(N)=O)=CC1C(C)(C)C (centres unmarked) [P61-A6] | – | – | – | – | – | – | – | – | 1000 | No significant inhibition | No significant inhibition |
